Test results taken from PMC11714206, “Massively Parallel Screening of Toll/Interleukin‐1 Receptor (TIR)‐Derived Peptides Reveals Multiple Toll‐Like Receptors (TLRs)‐Targeting Immunomodulatory Peptides” (Advanced Science, 2024).
One block for each sequence: values may come before it.

Biological target: T1, MyD88^TIR (Homo sapiens, UniProt Q99836)
T1 construct: MyD88 (residues 148–296); 6xHis; made in house; host or cells: E. coli BL21 (DE3)
Test: T‐Surf phage library (P8 and P3) selection against MyD88^TIR, four rounds, NGS read counts
Assay type: binding
Details: for P3_MyD88 Rank (after) / P3_MyD88 Rank (before): P3 library; for Population: 4th round of selection against MyD88 TIR, share of NGS reads; for P8_MyD88 Rank (after) / P8_MyD88 Rank (before): P8 library
Procedure: T‐Surf libraries were screened against the immobilized TIR domains of two major human TLR adaptor proteins, MAL^TIR and MyD88^TIR, allowing cross‐species selection of TIR‐binding motifs with 190 946 TIR‐derived peptides in a single binding assay (Scheme 1). Enriched phage pools from the fourth round of selection were analyzed using NGS after barcoding the peptide‐coding regions of the phage pools.
Phage display screening was performed by coating two wells of a 96‐well plate (Maxisorp, Thermo Fisher Scientific) with 100 µL of 5 µg mL^−1 TIR domains overnight; then, the coated wells were blocked with 200 µL of blocking buffer (0.2% BSA in PBS) and set aside for 1 h at 4 °C with gentle shaking. Next, 100 µL of the phage library was added to the wells and incubated for 1 h at room temperature (RT; 20 – 22 °C) with gentle shaking. The plate was washed four times with PBS containing 0.5% Tween‐20; the bound phages were eluted by adding 100 µL of 100 mM HCl to each well. The elute was neutralized with 10 µL of 1.0 M Tris‐HCl (pH 11.0). E. coli TG1 cells were grown to the log phase (A600 = ≈0.6), and 1 mL of the culture was incubated with 100 µL of the eluted phages for 30 min at 37 °C, with shaking at 200 rpm. Next, 1 µL of M13KO7 helper phages was added, followed by incubation for 45 min at 37 °C, with shaking. Subsequently, the cells were transferred to 25 mL of 2× yeast extract tryptone/carbenicillin/kanamycin medium and incubated overnight at 37 °C with shaking at 200 rpm. The amplified phages were precipitated with 20% PEG‐8000/2.5 M NaCl to be used for the next round of selection.
The naïve T‐Surf libraries in P8 and P3 and the enriched phage pools after four rounds were barcoded for NGS as previously described.^[ [59] ^] Briefly, 5 µL of the phage pool was used as a template for 20 cycles of a 50 µL PCR reaction using […] each of forward and reverse barcoded primers and PrimeSTAR Max DNA Polymerase. The PCR products were purified using Expin Gel SV (GeneAll). The NGS samples were quantified using qPCR, following the qPCR Quantification Protocol Guide (KAPA Library Quantification kits for Illumina Sequencing Platform), and qualified using the TapeStation High Sensitivity D1000 ScreenTape (Agilent Technologies). The indexed libraries were further sequenced by Macrogen (Seoul, Republic of Korea) using the NovaSeq platform (Illumina) with 100 bp paired‐end reads. The reads were demultiplexed by barcodes and filtered for an average Phred quality score of at least 30, followed by trimming the flanking consensus sequences using Cutadapt (version 2.3). Peptide sequence populations were analyzed according to the read counts.

[1] = selection against MyD88, rank by count after grouping
[2] = selection against MyD88, rank by count before grouping
[3] = selection against MyD88 TIR, rank by count after grouping
[4] = selection against MyD88 TIR, rank by count before grouping
[5] = P3_MyD88: rank by count after grouping
[6] = P3_MyD88: rank by count before grouping
[7] = P8_MyD88: rank by count after grouping
[8] = P8_MyD88: rank by count before grouping
[9] = P8_MyD88 pool: P8 T-Surf phage library
[10] = 4R selection against MyD88, rank after grouping
[11] = 4R selection against MyD88, rank before grouping
[12] = selection against MyD88, rank after grouping
[13] = selection against MyD88, rank before grouping
[14] = P8_MyD88: rank by NGS read count after grouping
[15] = P8_MyD88: rank by NGS read count before grouping

T1 sequence (Q99836 148-296): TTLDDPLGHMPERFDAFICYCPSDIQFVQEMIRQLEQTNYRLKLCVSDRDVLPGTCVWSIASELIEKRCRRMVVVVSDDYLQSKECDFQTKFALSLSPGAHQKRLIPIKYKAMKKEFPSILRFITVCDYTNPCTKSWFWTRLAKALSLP

Sequence: LKVERWRQSLEKAGKL
P3_MyD88 Rank (after) [3]: 217
P3_MyD88 Rank (before) [4]: 2522

Sequence: LVAHEISKKMKIFRP
Rank (after) [5]: 413
Rank (before) [6]: 2302

Sequence: SFTDHLYAALVQAGIL
Rank (after) [7]: 126
Rank (before) [8]: 137
Population [9]: 0.0123%

Sequence: DPQDLDWFYERLLSR
P8_MyD88 Rank (after) [3]: 236
P8_MyD88 Rank (before) [4]: 467

Sequence: DPQVLEWFYERLVSMF
P8_MyD88 Rank (after) [10]: 658
P8_MyD88 Rank (before) [11]: 2657

Sequence: DPQDLEWFYERLLAR
P8_MyD88 Rank (after) [12]: 515
P8_MyD88 Rank (before) [13]: 2879

Sequence: SSGRECLWRLLELRKK
Rank (after) [5]: 415
Rank (before) [6]: 3270

Sequence: RFWERLRYMIPEVSHQ
P3_MyD88 Rank (after) [10]: 598
P3_MyD88 Rank (before) [11]: 2545

Sequence: DPHDLDWFYERLVSLL
Rank (after) [7]: 143
Rank (before) [8]: 1072

Sequence: LEWGEPIVLEKQRSVT
P3_MyD88 Rank (after) [12]: 563
P3_MyD88 Rank (before) [13]: 2328

Sequence: DPQDLQWFYECLVSLL
P8_MyD88 Rank (after) [12]: 514
P8_MyD88 Rank (before) [13]: 2911

Sequence: DPQDLDWFYEHLFSQM
Rank (after) [7]: 411
Rank (before) [8]: 2801

Sequence: LGYPWIDWEYYVGIED
P8_MyD88 Rank (after) [12]: 519
P8_MyD88 Rank (before) [13]: 3226

Sequence: DPQELDWFYELLVSPF
P8_MyD88 Rank (after) [1]: 689
P8_MyD88 Rank (before) [2]: 2982

Sequence: WALDELLQILHPRELV
Rank (after) [14]: 981
Rank (before) [15]: 1460

Sequence: LKWGDPYFCSKLRYPM
Rank (after) [5]: 403
Rank (before) [6]: 2415

Sequence: NQWRNALTAAANLSGEFG
P3_MyD88 Rank (after) [10]: 604
P3_MyD88 Rank (before) [11]: 3505

Sequence: PQDRERFFERLFSLF
Rank (after) [14]: 998
Rank (before) [15]: 3490

Sequence: PQDLQWFYERLVSLI
Rank (after) [7]: 150
Rank (before) [8]: 186
Population [9]: 0.00694%

Sequence: YLQWGYPCFWDRLRFA
P3_MyD88 Rank (after) [3]: 251
P3_MyD88 Rank (before) [4]: 1559

Sequence: EWILSKLSQHILKREK
P3_MyD88 Rank (after) [10]: 632
P3_MyD88 Rank (before) [11]: 2128

Sequence: PQDLDWFYERLVSLL
Rank (after) [7]: 101
Rank (before) [8]: 120
Population [9]: 0.0189%

Sequence: NYASSTFALNELHYILRFI
P8_MyD88 Rank (after) [12]: 496
P8_MyD88 Rank (before) [13]: 3852

Sequence: GLSWVRMNGGWACMM
Rank (after) [14]: 922
Rank (before) [15]: 2287

Sequence: YNLAHYLYVSMRASGI
P8_MyD88 Rank (after) [1]: 715
P8_MyD88 Rank (before) [2]: 2132

Sequence: QDLGWFYERLISQILK
Rank (after) [7]: 108
Rank (before) [8]: 114
Population [9]: 0.02%

Sequence: DHHLDLPRGKAINRKFW
Rank (after) [5]: 102
Rank (before) [6]: 355

Sequence: SNFRKGLSRLLELSKK
P3_MyD88 Rank (after) [12]: 572
P3_MyD88 Rank (before) [13]: 3283

Sequence: YELDFSHFWLFDGQAGGEA
P8_MyD88 Rank (after) [3]: 284
P8_MyD88 Rank (before) [4]: 664

Sequence: EDSIFYAVSSGALDEP
P8_MyD88 Rank (after) [1]: 697
P8_MyD88 Rank (before) [2]: 3174

Sequence: NYAASEWALRELIQIM
P8_MyD88 Rank (after) [12]: 528
P8_MyD88 Rank (before) [13]: 3837

Sequence: SSFRGGLWRLLELRKE
P3_MyD88 Rank (after) [12]: 528
P3_MyD88 Rank (before) [13]: 3131

Sequence: YNFISHLYDALRLNKIETF
P3_MyD88 Rank (after) [3]: 271
P3_MyD88 Rank (before) [4]: 896

Sequence: KEVEGWRDALTKVATI
Population (P3_MyD88 pool: P3 T-Surf phage library): 0.0032%

Sequence: LGYHWIDWEYFVGSED
Population [9]: 0.00655%

Sequence: QYSHTLLAHTSKFPDE
Rank (after) [5]: 432
Rank (before) [6]: 2847

Sequence: DPQDLDWLYERLVRLF
P8_MyD88 Rank (after) [3]: 238
P8_MyD88 Rank (before) [4]: 2828

Sequence: DPQDLGWFYERLVSLF
Population [9]: 0.00617%

Sequence: WLESVLEDKFGYSLAL
Rank (after) [7]: 110
Rank (before) [8]: 116
Population [9]: 0.02%

Sequence: LTDVANILGYHWIDWE
Rank (after) [7]: 104
Rank (before) [8]: 110
Population [9]: 0.02%

Sequence: SSFREALWRLLELSKN
Rank (after) [5]: 167
Rank (before) [6]: 3222

Sequence: AVDKGIDKIQTPLKNA
Rank (after) [5]: 430
Rank (before) [6]: 1896

Second part, the sequence after the results:

P3_MyD88 Rank (after) [1]: 697
P3_MyD88 Rank (before) [2]: 3541
Sequence: NQGRNALTAAADLSGW

Rank (after) [7]: 425
Rank (before) [8]: 1033
Sequence: DWVWDYLLLSVFQTIFARRTE

Rank (after) [7]: 414
Rank (before) [8]: 1546
Sequence: WALNELLKILHARELF

P3_MyD88 Rank (after) [12]: 486
P3_MyD88 Rank (before) [13]: 1491
Sequence: YAFTGHLRKQSGEFG

Rank (after) [7]: 129
Rank (before) [8]: 140
Population [9]: 0.0116%
Sequence: AYILNFIKGNVMFEFL

P3_MyD88 Rank (after) [10]: 642
P3_MyD88 Rank (before) [11]: 1768
Sequence: VDPTHIRNQTGRYEKA

Rank (after) [7]: 188
Rank (before) [8]: 237
Sequence: TEPADTAFWDALWNKL

Rank (after) [5]: 479
Rank (before) [6]: 1631
Sequence: YTALTNRGFHTFLDND

P3_MyD88 Rank (after) [10]: 652
P3_MyD88 Rank (before) [11]: 2057
Sequence: DHHLNLPRGKSVKPEILG

P8_MyD88 Rank (after) [3]: 212
P8_MyD88 Rank (before) [4]: 323
Sequence: EWALHQLQQIIKWHQT

P8_MyD88 Rank (after) [12]: 535
P8_MyD88 Rank (before) [13]: 2754
Sequence: DPQDLDWFYECPVSMF

Rank (after) [5]: 446
Rank (before) [6]: 2130
Sequence: EWIREHLRLALKERLP

P8_MyD88 Rank (after) [12]: 503
P8_MyD88 Rank (before) [13]: 3761
Sequence: SPWALYELAMIIEAM

Rank (after) [7]: 394
Rank (before) [8]: 2672
Sequence: DPQGRDWFYERLVSLF

Rank (after) [14]: 889
Rank (before) [15]: 2308
Sequence: GLSWGPYEWWIDLYDA

P8_MyD88 Rank (after) [10]: 617
P8_MyD88 Rank (before) [11]: 3328
Sequence: LGYQGIDGEYFVGIED

P8_MyD88 Rank (after) [1]: 678
P8_MyD88 Rank (before) [2]: 1722
Sequence: YAASPWWFDELVHILW

P8_MyD88 Rank (after) [12]: 537
P8_MyD88 Rank (before) [13]: 2385
Sequence: DLVCDYLLPNLEGAAG

P3_MyD88 Rank (after) [3]: 223
P3_MyD88 Rank (before) [4]: 1655
Sequence: YTALTNIGIHTFRDND

P8_MyD88 Rank (after) [12]: 508
P8_MyD88 Rank (before) [13]: 1386
Sequence: WSLDELLKILYAKETI

P8_MyD88 Rank (after) [12]: 554
P8_MyD88 Rank (before) [13]: 2981
Sequence: DPQELGWFYERPFSQM

P3_MyD88 Rank (after) [3]: 209
P3_MyD88 Rank (before) [4]: 3257
Sequence: SSLREGLWRLLELSKR

P3_MyD88 Rank (after) [10]: 616
P3_MyD88 Rank (before) [11]: 2061
Sequence: DHHMDLTRGKAIKPEILG

P8_MyD88 Rank (after) [12]: 558
P8_MyD88 Rank (before) [13]: 1710
Sequence: YAASMRWFGELAKIVG

Population [9]: 0.00925%
Sequence: DPQDLDWFYERLVNLF

P3_MyD88 Rank (after) [10]: 626
P3_MyD88 Rank (before) [11]: 3614
Sequence: KEVEGWRGALTKKASL

Rank (after) [7]: 466
Rank (before) [8]: 3127
Sequence: DSVFWDLLRYSLHVTE

P3_MyD88 Rank (after) [12]: 532
P3_MyD88 Rank (before) [13]: 3499
Sequence: NQWRNALTAAANLIGR

Rank (after) [5]: 417
Rank (before) [6]: 2361
Sequence: LQNQWKLALNKVANLP

Rank (after) [14]: 969
Rank (before) [15]: 1775
Sequence: YASYDDNYYYWVTHVLLRRL

P3_MyD88 Rank (after) [10]: 600
P3_MyD88 Rank (before) [11]: 3188
Sequence: SSFREGLWRLMALIKK

Rank (after) [7]: 174
Rank (before) [8]: 197
Sequence: EGFTGFLYEALTRYGI

P8_MyD88 Rank (after) [3]: 275
P8_MyD88 Rank (before) [4]: 586
Sequence: EWFYERLFSQMRKDIK

P8_MyD88 Rank (after) [1]: 684
P8_MyD88 Rank (before) [2]: 2656
Sequence: DPQVLEWFYELLVSLL

P3_MyD88 Rank (after) [10]: 607
P3_MyD88 Rank (before) [11]: 3259
Sequence: SSCREGLWRLLELIKK

P8_MyD88 Rank (after) [12]: 541
P8_MyD88 Rank (before) [13]: 3759
Sequence: SLLYDHLRWLGIRAFL

Rank (after) [7]: 109
Rank (before) [8]: 115
Population [9]: 0.02%
Sequence: WALQELVKILQAKIFL

P8_MyD88 Rank (after) [1]: 693
P8_MyD88 Rank (before) [2]: 1380
Sequence: WLLDQLDKILEAHGTT
